ChEMBL document CHEMBL1201862, “PubChem BioAssay data set” (2004)
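Dose response: 5 concentrations. Exposure: 48 h. Format: 96-well plates. Endpoint: linear interpolation; highest concentration if not reached. The concentration for 50% growth inhibition is given as GI50.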 Active and inactive are the calls of the source. Cut-off read from the data, not from the text of the source: active = GI50 up to about 1.1 µM and inactive = higher.

Assays:
Test in all cases: NCI-60 cell line screen, 48 h
UACC-257 = tested on: UACC-257
XF498 = tested on: XF498
EKVX = tested on: EKVX
SN12C = tested on: SN12C
UACC-62 = tested on: UACC-62
SW-620 = tested on: SW-620
SF-268 = tested on: SF-268
RXF 631 = tested on: RXF 631
K562 = tested on: K562
HCT-116 = tested on: HCT-116
SF-539 = tested on: SF-539
LXFL 529 = tested on: LXFL 529
SNB-19 = tested on: SNB-19
HOP-92 = tested on: HOP-92
Malme-3M = tested on: Malme-3M
NCI-H23 = tested on: NCI-H23
HCT-15 = tested on: HCT-15
SF-295 = tested on: SF-295
M14 = tested on: M14
CAKI-1 = tested on: CAKI-1
OVCAR-5 = tested on: OVCAR-5
SK-MEL-5 = tested on: SK-MEL-5
SK-MEL-2 = tested on: SK-MEL-2
M19-MEL = tested on: M19-MEL
UO-31 = tested on: UO-31
IGROV-1 = tested on: IGROV-1
LOX IMVI = tested on: LOX IMVI
A498 = tested on: A498
KM12 = tested on: KM12
OVCAR-4 = tested on: OVCAR-4
DMS-114 = tested on: DMS-114
SR = tested on: SR
RPMI-8226 = tested on: RPMI-8226
MOLT-4 = tested on: MOLT-4
DMS-273 = tested on: DMS-273
CCRF-CEM = tested on: CCRF-CEM
HL-60 = tested on: HL-60
HT-29 = tested on: HT-29
U-251 = tested on: U-251
SNB-75 = tested on: SNB-75
A549 = tested on: A549
OVCAR-8 = tested on: OVCAR-8
HOP-62 = tested on: HOP-62
NCI-H522 = tested on: NCI-H522
SNB-78 = tested on: SNB-78
DLD-1 = tested on: DLD-1
TK-10 = tested on: TK-10
COLO 205 = tested on: COLO 205
NCI-H226 = tested on: NCI-H226
KM-20L2 = tested on: KM-20L2
SK-OV-3 = tested on: SK-OV-3
786-0 = tested on: 786-0
NCI-H460 = tested on: NCI-H460
RXF 393 = tested on: RXF 393
OVCAR-3 = tested on: OVCAR-3
HOP-18 = tested on: HOP-18

`O=c1c2cc(-c3ccccc3)sc2nc2sc(-c3ccccc3)nn12` was tested, and the GI50 (UACC-257) was > 100 µM (inactive), the GI50 (XF498) was > 100 µM (inactive) and the GI50 (EKVX) was > 100 µM (inactive). The GI50 (SN12C) was > 100 µM (inactive), the GI50 (UACC-62) was > 100 µM (inactive) and the GI50 (SW-620) was > 100 µM (inactive). The GI50 (SF-268) was > 100 µM (inactive), the GI50 (RXF 631) was > 100 µM (inactive) and the GI50 (K562) was > 100 µM (inactive). For the same compound, the GI50 (HCT-116) was > 100 µM (inactive), the GI50 (SF-539) was > 100 µM (inactive) and the GI50 (LXFL 529) was > 100 µM (inactive). The GI50 (SNB-19) was > 100 µM (inactive), the GI50 (HOP-92) was > 100 µM (inactive) and the GI50 (Malme-3M) was > 100 µM (inactive). For the same compound, the GI50 (NCI-H23) was > 100 µM (inactive), the GI50 (HCT-15) was > 100 µM and the GI50 (SF-295) was > 100 µM (inactive). The GI50 (M14) was > 100 µM (inactive), the GI50 (CAKI-1) was > 100 µM (inactive) and the GI50 (OVCAR-5) was > 100 µM (inactive). For the same compound, the GI50 (SK-MEL-5) was > 100 µM (inactive), the GI50 (SK-MEL-2) was > 100 µM (inactive) and the GI50 (M19-MEL) was > 100 µM (inactive). The GI50 (UO-31) was > 100 µM (inactive), the GI50 (IGROV-1) was > 100 µM (inactive) and the GI50 (LOX IMVI) was > 100 µM (inactive). For the same compound, the GI50 (A498) was > 100 µM (inactive), the GI50 (KM12) was > 100 µM (inactive) and the GI50 (OVCAR-4) was > 100 µM (inactive). The GI50 (DMS-114) was > 100 µM (inactive), the GI50 (SR) was > 100 µM (inactive) and the GI50 (RPMI-8226) was > 100 µM (inactive). The GI50 (MOLT-4) was > 100 µM (inactive), the GI50 (DMS-273) was > 100 µM (inactive) and the GI50 (CCRF-CEM) was > 100 µM (inactive). The GI50 (HL-60) was > 100 µM (inactive), the GI50 (HT-29) was > 100 µM (inactive) and the GI50 (U-251) was > 100 µM (inactive). The GI50 (SNB-75) was > 100 µM (inactive), the GI50 (A549) was > 100 µM (inactive) and the GI50 (OVCAR-8) was > 100 µM (inactive). For the same compound, the GI50 (HOP-62) was 85.3 µM (inactive), the GI50 (NCI-H522) was > 100 µM (inactive) and the GI50 (SNB-78) was > 100 µM (inactive). The GI50 (DLD-1) was > 100 µM (inactive), the GI50 (TK-10) was > 100 µM (inactive) and the GI50 (COLO 205) was > 100 µM (inactive). For the same compound, the GI50 (NCI-H226) was > 100 µM (inactive), the GI50 (KM-20L2) was > 100 µM (inactive) and the GI50 (SK-OV-3) was > 100 µM (inactive). For the same compound, the GI50 (786-0) was > 100 µM (inactive), the GI50 (NCI-H460) was > 100 µM (inactive) and the GI50 (RXF 393) was > 100 µM (inactive). The GI50 (OVCAR-3) was > 100 µM (inactive) and the GI50 (HOP-18) was > 100 µM (inactive).
